Read-outs that look alike come from different tables or passages of the source.
Assays:
Assay in all cases: biochemical
Parameters in all cases: Reaction Biology 371-kinase panel at Km ATP, per cent enzyme activity relative to DMSO, single dose in duplicate
IKKa/CHUK = IKKa/CHUK (Homo sapiens, UniProt O15111); details: duplicate measurements, Km ATP
Method in brief: (§1)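 Compound screened at 300 nM in vitro across a 371-kinase panel. Enzyme activity expressed as % of DMSO controls. IC50 values came from sigmoidal variable-slope dose-response fits with the bottom fixed at 0.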

STK16 = STK16 (Homo sapiens, UniProt O75716); details: duplicate measurements, Km ATP
Chain of STK16 (O75716 whole entry): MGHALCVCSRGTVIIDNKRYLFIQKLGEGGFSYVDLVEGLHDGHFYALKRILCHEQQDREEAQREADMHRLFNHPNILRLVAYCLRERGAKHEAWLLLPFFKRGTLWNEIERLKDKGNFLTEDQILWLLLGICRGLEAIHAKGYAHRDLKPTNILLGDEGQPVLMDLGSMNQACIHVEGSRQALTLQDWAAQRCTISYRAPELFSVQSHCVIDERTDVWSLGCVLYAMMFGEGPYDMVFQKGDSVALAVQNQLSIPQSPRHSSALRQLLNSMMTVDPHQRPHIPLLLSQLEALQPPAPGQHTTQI
Method in brief: as §1

CK2a2 = biological target: T1, CK2a2 (Homo sapiens, UniProt P19784); details: duplicate measurements, Km ATP
T1 construct: gene CSNK2A2
T1 sequence (P19784 whole entry): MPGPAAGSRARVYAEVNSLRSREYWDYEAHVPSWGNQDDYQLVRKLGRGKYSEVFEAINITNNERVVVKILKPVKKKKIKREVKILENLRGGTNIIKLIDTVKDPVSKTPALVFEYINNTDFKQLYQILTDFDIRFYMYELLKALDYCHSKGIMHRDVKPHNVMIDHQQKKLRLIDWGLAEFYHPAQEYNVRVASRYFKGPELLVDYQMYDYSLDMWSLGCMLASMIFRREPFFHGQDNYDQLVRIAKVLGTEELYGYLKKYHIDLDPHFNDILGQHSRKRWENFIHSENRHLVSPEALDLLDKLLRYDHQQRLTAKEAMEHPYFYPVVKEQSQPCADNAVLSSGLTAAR
Method in brief: as §1

NLK = NLK (Homo sapiens, UniProt Q9UBE8); details: duplicate measurements, Km ATP
Chain of NLK (Q9UBE8 whole entry): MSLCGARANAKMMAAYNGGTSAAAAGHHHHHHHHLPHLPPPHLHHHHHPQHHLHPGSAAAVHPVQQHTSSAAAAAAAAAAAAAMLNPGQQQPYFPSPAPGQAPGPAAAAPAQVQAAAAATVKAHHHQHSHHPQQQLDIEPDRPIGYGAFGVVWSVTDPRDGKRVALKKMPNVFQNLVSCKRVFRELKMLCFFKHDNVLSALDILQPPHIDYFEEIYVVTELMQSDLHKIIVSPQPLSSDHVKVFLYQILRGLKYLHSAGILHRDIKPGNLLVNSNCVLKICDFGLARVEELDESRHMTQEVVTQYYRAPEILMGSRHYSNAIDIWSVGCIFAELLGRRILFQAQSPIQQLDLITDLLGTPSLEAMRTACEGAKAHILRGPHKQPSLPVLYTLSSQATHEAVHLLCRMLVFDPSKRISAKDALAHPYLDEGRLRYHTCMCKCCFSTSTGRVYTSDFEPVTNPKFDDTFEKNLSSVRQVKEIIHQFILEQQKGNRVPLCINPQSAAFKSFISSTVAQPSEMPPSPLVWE
Method in brief: as §1

KHS/MAP4K5 = KHS/MAP4K5 (Homo sapiens, UniProt Q9Y4K4); details: duplicate measurements, Km ATP
Method in brief: as §1

TTBK1 = TTBK1 (Homo sapiens, UniProt Q5TCY1); details: duplicate measurements, Km ATP
Method in brief: as §1

PAK1 = PAK1 (Homo sapiens, UniProt Q13153); details: duplicate measurements, Km ATP
Chain of PAK1 (Q13153 whole entry): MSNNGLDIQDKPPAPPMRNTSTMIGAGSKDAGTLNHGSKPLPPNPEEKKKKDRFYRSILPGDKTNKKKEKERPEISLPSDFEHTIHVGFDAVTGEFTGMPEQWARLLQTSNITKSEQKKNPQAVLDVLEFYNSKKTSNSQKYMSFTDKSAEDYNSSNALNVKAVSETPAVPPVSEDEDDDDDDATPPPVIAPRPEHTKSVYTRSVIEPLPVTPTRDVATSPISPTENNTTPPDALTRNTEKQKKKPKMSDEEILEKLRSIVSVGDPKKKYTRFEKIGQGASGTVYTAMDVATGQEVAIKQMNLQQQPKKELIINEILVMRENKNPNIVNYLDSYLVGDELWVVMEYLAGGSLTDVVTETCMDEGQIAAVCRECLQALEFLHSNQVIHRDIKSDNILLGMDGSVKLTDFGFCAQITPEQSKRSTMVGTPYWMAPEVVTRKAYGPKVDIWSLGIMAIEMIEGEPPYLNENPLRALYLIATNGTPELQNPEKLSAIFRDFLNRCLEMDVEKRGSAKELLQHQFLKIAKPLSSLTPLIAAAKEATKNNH
Method in brief: as §1

ROCK1 = ROCK1 (Homo sapiens, UniProt Q13464); details: duplicate measurements, Km ATP
Method in brief: as §1

DAPK1 = DAPK1 (Homo sapiens, UniProt P53355); details: duplicate measurements, Km ATP
Method in brief: as §1

FLT4/VEGFR3 = FLT4/VEGFR3 (Homo sapiens, UniProt P35916); details: duplicate measurements, Km ATP
Method in brief: as §1

CDK3/cyclin E2 = CDK3/cyclin E2 (Homo sapiens, UniProt Q00526); details: duplicate measurements, Km ATP
Chain of CDK3/cyclin E2 (Q00526 whole entry): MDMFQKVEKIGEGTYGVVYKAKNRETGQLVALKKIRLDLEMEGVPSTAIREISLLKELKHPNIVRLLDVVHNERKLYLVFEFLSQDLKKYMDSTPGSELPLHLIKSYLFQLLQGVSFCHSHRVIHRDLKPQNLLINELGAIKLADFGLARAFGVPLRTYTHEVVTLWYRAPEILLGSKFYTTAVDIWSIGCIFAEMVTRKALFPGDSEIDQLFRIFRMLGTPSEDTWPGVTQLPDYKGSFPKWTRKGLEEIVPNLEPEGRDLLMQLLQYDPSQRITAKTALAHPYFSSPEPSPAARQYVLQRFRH
Chain of CDK3/cyclin E2 (O96020 whole entry partner): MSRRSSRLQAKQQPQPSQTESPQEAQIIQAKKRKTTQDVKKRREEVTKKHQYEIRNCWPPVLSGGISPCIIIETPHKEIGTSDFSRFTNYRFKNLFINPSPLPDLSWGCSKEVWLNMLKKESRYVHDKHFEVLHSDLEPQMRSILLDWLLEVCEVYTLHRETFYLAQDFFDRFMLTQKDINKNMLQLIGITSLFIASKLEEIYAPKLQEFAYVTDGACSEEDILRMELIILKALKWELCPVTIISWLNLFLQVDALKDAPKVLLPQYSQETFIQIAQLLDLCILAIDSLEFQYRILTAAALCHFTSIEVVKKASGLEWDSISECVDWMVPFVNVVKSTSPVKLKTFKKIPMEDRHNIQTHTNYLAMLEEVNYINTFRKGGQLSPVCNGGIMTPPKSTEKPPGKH
Method in brief: as §1

MEK1 = biological target: T2, MEK1 (Homo sapiens, UniProt Q02750); details: duplicate measurements, Km ATP
T2 construct: gene MAP2K1
T2 sequence (Q02750 whole entry): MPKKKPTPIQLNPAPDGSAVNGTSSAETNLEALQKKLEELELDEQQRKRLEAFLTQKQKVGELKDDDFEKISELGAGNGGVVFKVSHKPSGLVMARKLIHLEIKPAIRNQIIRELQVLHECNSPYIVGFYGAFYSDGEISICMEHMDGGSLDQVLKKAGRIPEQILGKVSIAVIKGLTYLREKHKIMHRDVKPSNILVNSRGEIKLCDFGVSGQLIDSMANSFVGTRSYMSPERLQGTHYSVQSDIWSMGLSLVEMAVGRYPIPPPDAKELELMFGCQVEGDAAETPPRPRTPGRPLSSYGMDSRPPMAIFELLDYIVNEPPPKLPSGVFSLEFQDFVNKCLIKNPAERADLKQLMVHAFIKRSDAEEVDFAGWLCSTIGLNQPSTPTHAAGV
Method in brief: as §1

MELK = MELK (Homo sapiens, UniProt Q14680); details: duplicate measurements, Km ATP
Chain of MELK (Q14680 whole entry): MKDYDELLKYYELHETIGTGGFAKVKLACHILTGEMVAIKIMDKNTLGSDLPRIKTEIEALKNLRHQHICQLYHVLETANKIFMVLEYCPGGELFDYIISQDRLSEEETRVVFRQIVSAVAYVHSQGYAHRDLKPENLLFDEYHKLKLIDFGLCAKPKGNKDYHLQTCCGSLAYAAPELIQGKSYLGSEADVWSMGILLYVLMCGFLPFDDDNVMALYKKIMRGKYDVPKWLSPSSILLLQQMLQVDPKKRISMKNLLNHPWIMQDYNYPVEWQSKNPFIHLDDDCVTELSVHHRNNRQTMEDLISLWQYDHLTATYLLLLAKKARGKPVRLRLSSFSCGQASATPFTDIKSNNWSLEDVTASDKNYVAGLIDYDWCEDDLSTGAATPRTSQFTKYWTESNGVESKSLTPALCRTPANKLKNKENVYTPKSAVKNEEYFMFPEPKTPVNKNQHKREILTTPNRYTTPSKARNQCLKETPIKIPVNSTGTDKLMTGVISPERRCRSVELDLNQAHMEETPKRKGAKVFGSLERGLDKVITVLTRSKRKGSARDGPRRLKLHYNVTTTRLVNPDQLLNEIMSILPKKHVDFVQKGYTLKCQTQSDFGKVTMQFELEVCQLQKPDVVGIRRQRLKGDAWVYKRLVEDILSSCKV
Method in brief: as §1

PAK2 = PAK2 (Homo sapiens, UniProt Q13177); details: duplicate measurements, Km ATP; read-out: % Enzyme Activity (relative to DMSO controls) / TP-0005801 (0.3µM) / Data 1
Method in brief: as §1

IR = biological target: T3, IR (Homo sapiens, UniProt P06213); details: duplicate measurements, Km ATP
T3 construct: gene INSR
Method in brief: as §1

RSK2 = biological target: T4, RSK2 (Homo sapiens, UniProt P51812); details: duplicate measurements, Km ATP
T4 construct: gene RPS6KA3
Method in brief: as §1

PAK6 = PAK6 (Homo sapiens, UniProt Q9NQU5); details: duplicate measurements, Km ATP
Method in brief: as §1

BLK = BLK (Homo sapiens, UniProt P51451); details: duplicate measurements, Km ATP
Method in brief: as §1

JNK3 = biological target: T5, JNK3 (Homo sapiens, UniProt P53779); details: duplicate measurements, Km ATP
T5 construct: gene MAPK10
T5 sequence (P53779 whole entry): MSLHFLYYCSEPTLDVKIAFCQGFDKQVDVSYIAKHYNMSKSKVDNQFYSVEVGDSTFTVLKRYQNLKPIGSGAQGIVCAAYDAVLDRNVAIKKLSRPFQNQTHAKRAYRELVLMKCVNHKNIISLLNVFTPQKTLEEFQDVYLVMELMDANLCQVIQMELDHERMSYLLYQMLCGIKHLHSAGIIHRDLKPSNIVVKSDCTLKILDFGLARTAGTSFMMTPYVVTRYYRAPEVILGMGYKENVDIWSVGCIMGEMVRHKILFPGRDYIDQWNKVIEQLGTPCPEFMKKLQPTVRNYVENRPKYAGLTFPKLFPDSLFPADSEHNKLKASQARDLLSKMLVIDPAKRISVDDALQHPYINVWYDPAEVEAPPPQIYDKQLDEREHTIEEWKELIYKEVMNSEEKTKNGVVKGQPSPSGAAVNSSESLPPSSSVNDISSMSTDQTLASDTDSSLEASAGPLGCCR
Method in brief: as §1

STK38/NDR1 = STK38/NDR1 (Homo sapiens, UniProt Q15208); details: duplicate measurements, Km ATP
Method in brief: as §1

[1] = read-out: % Enzyme Activity (relative to DMSO controls) / TP-0005801 (0.3µM) / Data 1
[2] = read-out: % Enzyme Activity (relative to DMSO controls) / TP-0005801 (0.3µM) / Data 2

Chain of IKKa/CHUK (O15111 whole entry): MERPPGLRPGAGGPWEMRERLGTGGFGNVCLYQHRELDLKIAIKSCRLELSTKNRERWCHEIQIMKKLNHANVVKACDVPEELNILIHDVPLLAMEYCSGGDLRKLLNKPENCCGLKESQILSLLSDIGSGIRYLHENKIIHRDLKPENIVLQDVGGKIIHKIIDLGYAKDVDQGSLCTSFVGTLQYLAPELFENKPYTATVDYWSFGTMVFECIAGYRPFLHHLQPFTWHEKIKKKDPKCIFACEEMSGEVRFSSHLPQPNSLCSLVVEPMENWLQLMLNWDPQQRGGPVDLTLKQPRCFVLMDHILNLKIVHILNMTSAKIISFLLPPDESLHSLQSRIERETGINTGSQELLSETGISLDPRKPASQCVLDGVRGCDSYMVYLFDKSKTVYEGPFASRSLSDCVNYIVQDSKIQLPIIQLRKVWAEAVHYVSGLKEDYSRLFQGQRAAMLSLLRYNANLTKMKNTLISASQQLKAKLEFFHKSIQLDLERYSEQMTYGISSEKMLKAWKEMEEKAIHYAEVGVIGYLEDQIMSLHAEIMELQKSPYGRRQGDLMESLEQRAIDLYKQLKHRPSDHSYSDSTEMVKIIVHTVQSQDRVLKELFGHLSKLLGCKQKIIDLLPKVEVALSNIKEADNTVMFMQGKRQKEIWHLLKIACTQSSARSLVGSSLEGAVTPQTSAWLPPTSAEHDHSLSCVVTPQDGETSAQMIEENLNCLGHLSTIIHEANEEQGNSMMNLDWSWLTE

- remaining activity at 0.3 µM (IKKa/CHUK; [1]): 99.5%
- remaining activity at 0.3 µM (IKKa/CHUK; [2]): 94.3%
- remaining activity at 0.3 µM (STK16; [1]): 107%
- remaining activity at 0.3 µM (STK16; [2]): 105%
- remaining activity at 0.3 µM (CK2a2; [1]): 107%
- remaining activity at 0.3 µM (CK2a2; [2]): 89.1%
- remaining activity at 0.3 µM (NLK; [1]): 92.3%
- remaining activity at 0.3 µM (NLK; [2]): 85.8%
- remaining activity at 0.3 µM (KHS/MAP4K5; [1]): 90%
- remaining activity at 0.3 µM (KHS/MAP4K5; [2]): 87%
- remaining activity at 0.3 µM (TTBK1; [1]): 97.2%
- remaining activity at 0.3 µM (TTBK1; [2]): 94%
- remaining activity at 0.3 µM (PAK1; [1]): 91.5%
- remaining activity at 0.3 µM (PAK1; [2]): 86.4%
- remaining activity at 0.3 µM (ROCK1; [1]): 99.8%
- remaining activity at 0.3 µM (ROCK1; [2]): 96.7%
- remaining activity at 0.3 µM (DAPK1; [1]): 102%
- remaining activity at 0.3 µM (DAPK1; [2]): 101%
- remaining activity at 0.3 µM (FLT4/VEGFR3; [1]): 35.2%
- remaining activity at 0.3 µM (FLT4/VEGFR3; [2]): 35.1%
- remaining activity at 0.3 µM (CDK3/cyclin E2; [1]): 95.5%
- remaining activity at 0.3 µM (CDK3/cyclin E2; [2]): 95.1%
- remaining activity at 0.3 µM (MEK1; [1]): 95.7%
- remaining activity at 0.3 µM (MEK1; [2]): 95.5%
- remaining activity at 0.3 µM (MELK; [1]): 93.1%
- remaining activity at 0.3 µM (MELK; [2]): 90.3%
- remaining activity at 0.3 µM (PAK2): 104%
- remaining activity at 0.3 µM (IR; [1]): 3%
- remaining activity at 0.3 µM (IR; [2]): 2.81%
- remaining activity at 0.3 µM (RSK2; [1]): 90.5%
- remaining activity at 0.3 µM (RSK2; [2]): 84.9%
- remaining activity at 0.3 µM (PAK6; [1]): 107%
- remaining activity at 0.3 µM (PAK6; [2]): 105%
- remaining activity at 0.3 µM (BLK; [1]): 88.3%
- remaining activity at 0.3 µM (BLK; [2]): 87.5%
- remaining activity at 0.3 µM (JNK3; [1]): 81%
- remaining activity at 0.3 µM (JNK3; [2]): 80.7%
- remaining activity at 0.3 µM (STK38/NDR1; [1]): 38.8%
- remaining activity at 0.3 µM (STK38/NDR1; [2]): 38.7%
Structure (SMILES): COc1cc(N2CCN(C)CC2)c(C)cc1Nc1ncc(Br)c(Nc2cccnc2N(C)C)n1 [TP-5801]

— PMC8429728, “TNK1 is a ubiquitin-binding and 14-3-3-regulated kinase that can be targeted to block tumor growth” (Nature Communications, 2021)
